Values of other authors as cited in patent publication US8440231B2, “Swellable particles for drug delivery” (STC.UNM, priority 2006, dated 2013).

soluble in water: 100 mg/mL
Structure (SMILES): CC(=O)N[C@@H](CS)C(=O)O [NACS, N-acetylcysteine]
